The results in this text go back to paper PMC10878397, “Development of Potent Dual BET/HDAC Inhibitors via Pharmacophore Merging and Structure-Guided Optimization” (ACS Chemical Biology, 2024).

One test concerns the target HDAC3 (Homo sapiens, UniProt O15379). As to the kind of experiment: NanoBRET target engagement assay (HEK293T). The test is classed as cell-based. On the set-up: BRD4 bromodomains and full-length HDACs were obtained as plasmids cloned in-frame with a terminal NanoLuc fusion; host or cells: HEK293T. As to conditions: intact cells. How it is done: (§1) The assay was performed as described previously.[17],[59] In brief, BRD4 bromodomains and full-length HDACs were obtained as plasmids cloned in-frame with a terminal NanoLuc fusion (Promega). Plasmids were transfected into HEK293T cells using FuGENE HD (Promega, E2312), and proteins were allowed to express for 20 h. […] The corresponding protein-transfected cells were added and reseeded at a density of 2 × 10^5 cells/mL after trypsinization and resuspended in Opti-MEM without phenol red (Life Technologies). The system was allowed to equilibrate for 2 h at 37 °C/5% CO2 prior to BRET measurements. […] For lysed-mode NanoBRET experiments, digitonin (Promega, #G9441) was added as per the manufacturer’s instructions to a final concentration of […].

In a further test the target is HDAC1 (Homo sapiens, UniProt Q13547). Kind of test: NanoBRET target engagement assay (HEK293T). Further details: BRD4 bromodomains and full-length HDACs were obtained as plasmids cloned in-frame with a terminal NanoLuc fusion; host or cells: HEK293T. The format is cell-based. How it is done:
as §1

Another test concerns the target HDAC2 (Homo sapiens, UniProt Q92769). Kind of test: NanoBRET target engagement assay (HEK293T). On the set-up: BRD4 bromodomains and full-length HDACs were obtained as plasmids cloned in-frame with a terminal NanoLuc fusion; host or cells: HEK293T. The test is classed as cell-based. How it is done: as §1
Test [1] deals with histone H3 K9/K14 acetylation in PaTu8988T cells. Kind of test: Western blot of histone H3 K9/K14 acetylation. To be noted: 48 h, 1 μM inhibitor or concentration series. The format is cell-based. How it is done:
Protein samples were prepared in RIPA buffer (9806S, Cell Signaling Technology) containing a protease inhibitor cocktail (Roche). Proteins were separated in SDS-polyacrylamide gels, transferred to nitrocellulose membranes with a Trans-Blot Turbo Transfer System (Bio-Rad), and incubated with antibodies dissolved in TBS buffer containing 5% BSA and 0.1% Tween20. The following primary antibodies were used: rabbit anti-β-actin (ab8227, Abcam) and rabbit antiacetyl-histone H3 (Lys9/Lys14; 9677, Cell Signaling Technology). Primary antibodies were recognized by a peroxidase-coupled secondary antibody (Jackson), and signals were detected by chemiluminescence.

In the next test the target is BRD4 BD2 (Homo sapiens, UniProt O60885). As to the kind of experiment: DSF thermal shift assay. The test is classed as binding. On the set-up: purchased in-house (SGC Frankfurt recombinant bromodomain DSF panel). To be noted: for Mean Tm BRD4 (2), bromodomain panel: selectivity panel, technical triplicates. How it is done: (§2) The effects of inhibitor binding on the apparent melting temperature of recombinant bromodomains were determined by DSF in a 96-well plate (Starlab) at a protein concentration of 2 μM with 10 μΜ compound in buffer containing 25 mM HEPES, pH 7.5, 150 mM NaCl, and 0.5 mM TCEP. […] Protein unfolding profiles were recorded using an MX3005P real-time qPCR instrument (Agilent; excitation/emission filters = 492/610 nm) while increasing the temperature from 25 to 95 °C at a heating rate of 3 °C/min. Tm values were calculated after fitting the fluorescence curves to the Boltzmann equation. Differences in melting temperature upon compound binding are given as ΔTm = Tm (protein with inhibitor) – Tm (protein with DMSO control). Measurements were performed in triplicates.

A further test deals with BRD4 BD1 (Homo sapiens, UniProt O60885). Kind of test: DSF thermal shift assay. The test is classed as binding. Further details: purchased in-house (SGC Frankfurt recombinant bromodomain DSF panel). As to conditions: for Mean Tm BRD4 (1), bromodomain panel: selectivity panel, technical triplicates. How it is done: as §2
The subject of another test is HCC2429 cells. Kind of test: CellTiter-Glo cell viability assay. The format is cell-based. To be noted: Homo sapiens, HCC2429, 72 h; treatment for 3 days. How it is done:
(§3) PDAC cell line PaTu8988T was obtained from ATCC and cultured in Dulbecco’s modified Eagle’s medium (DMEM) containing 10% FBS, 25 mM glucose, […], 1 mM sodium pyruvate, and 1% penicillin–streptomycin. Nut midline carcinoma cell line HCC2429 was kindly provided by Lead Discovery Center GmbH (Dortmund, Germany) and was cultured in RPMI1640 medium containing 10% FBS, 2 mM L-glutamine, and 1% penicillin–streptomycin. Cell line PaTu8988T was authenticated using the Multiplex human Cell line Authentication Test (MCA) by Multiplexion GmbH, and cell line HCC2429 was authenticated using short tandem repeat (STR) profiling.
(§4) The assays were performed using Promega’s CellTiter-Glo Luminescent Cell Viability Assay kit (Cat. #G7571). First, compounds dissolved in DMSO were printed in 96-well plates (Corning) by using a Tecan D300e digital dispenser. Then, cells were seeded into the compound-printed plates using a Thermo Multidrop reagent dispenser. 72 h later, one volume of diluted CellTiter-Glo reagent (1:4 dilution with PBS) was added to individual wells by using the Thermo Multidrop reagent dispenser again. Plates were shaken for 2 min and incubated for 10 min in the dark. Luminescent signals were read by using a Tecan Spark Multimode Microplate Reader. The values were normalized to the DMSO control wells and presented as a percentage of cell viability. Dose–response curves were drawn with GraphPad Prism 8.

Another test relates to PaTu8988T cells. As to the kind of experiment: CellTiter-Glo cell viability assay. The test is classed as cell-based. As to conditions: Homo sapiens, PaTu 8988t, 72 h; treatment for 3 days. On the procedure: as §3, §4

Molecules are shown by their SMILES. Where “and” joins values, the source holds several entries; their conditions need not be identical. Identical values can stand only once. Like-named read-outs stand apart in the source and are kept apart here. Some results are limits rather than exact numbers.

Sequence of HDAC2 (Q92769 whole entry, the tested form may be a part): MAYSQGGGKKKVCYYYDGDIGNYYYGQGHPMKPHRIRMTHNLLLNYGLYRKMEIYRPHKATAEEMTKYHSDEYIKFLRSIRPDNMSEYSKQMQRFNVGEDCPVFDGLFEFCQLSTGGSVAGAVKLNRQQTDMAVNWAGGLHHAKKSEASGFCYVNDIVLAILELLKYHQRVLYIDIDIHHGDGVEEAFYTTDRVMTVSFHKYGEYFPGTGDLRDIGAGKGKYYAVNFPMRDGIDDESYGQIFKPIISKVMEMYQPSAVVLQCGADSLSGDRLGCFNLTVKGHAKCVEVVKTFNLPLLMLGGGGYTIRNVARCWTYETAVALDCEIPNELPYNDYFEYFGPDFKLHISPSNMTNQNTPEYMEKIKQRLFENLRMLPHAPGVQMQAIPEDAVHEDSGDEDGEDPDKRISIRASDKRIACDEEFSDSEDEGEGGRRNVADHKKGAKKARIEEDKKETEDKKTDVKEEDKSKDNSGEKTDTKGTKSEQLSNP
Sequence of HDAC3 (O15379 whole entry, the tested form may be a part): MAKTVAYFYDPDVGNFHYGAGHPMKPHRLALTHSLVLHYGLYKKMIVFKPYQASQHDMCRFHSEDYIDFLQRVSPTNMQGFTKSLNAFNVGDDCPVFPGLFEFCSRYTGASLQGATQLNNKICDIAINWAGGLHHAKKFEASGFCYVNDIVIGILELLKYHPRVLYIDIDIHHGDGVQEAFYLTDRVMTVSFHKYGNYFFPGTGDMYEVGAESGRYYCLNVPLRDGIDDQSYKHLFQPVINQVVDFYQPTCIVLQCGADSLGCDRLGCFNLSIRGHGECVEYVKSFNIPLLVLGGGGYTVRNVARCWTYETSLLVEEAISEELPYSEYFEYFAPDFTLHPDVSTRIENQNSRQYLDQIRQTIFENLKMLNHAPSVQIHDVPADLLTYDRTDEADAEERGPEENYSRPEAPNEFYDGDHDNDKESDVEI
Sequence of HDAC1 (Q13547 whole entry, the tested form may be a part): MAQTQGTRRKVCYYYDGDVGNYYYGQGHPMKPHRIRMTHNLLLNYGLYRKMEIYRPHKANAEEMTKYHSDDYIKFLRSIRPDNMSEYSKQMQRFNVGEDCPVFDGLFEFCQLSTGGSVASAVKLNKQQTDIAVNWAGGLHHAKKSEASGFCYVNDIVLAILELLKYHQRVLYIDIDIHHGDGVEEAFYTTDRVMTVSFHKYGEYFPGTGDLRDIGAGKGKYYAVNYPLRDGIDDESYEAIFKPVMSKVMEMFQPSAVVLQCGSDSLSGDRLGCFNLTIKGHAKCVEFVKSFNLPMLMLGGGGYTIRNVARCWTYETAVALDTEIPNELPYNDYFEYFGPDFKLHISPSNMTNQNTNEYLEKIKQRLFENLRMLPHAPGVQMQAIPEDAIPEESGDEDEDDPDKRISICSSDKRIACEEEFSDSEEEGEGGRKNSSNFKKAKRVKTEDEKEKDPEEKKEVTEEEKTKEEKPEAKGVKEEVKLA

Regarding `Cn1cc(-c2ccc(C(=O)Nc3ccccc3N)cc2)c2cc[nH]c2c1=O` [NB462], the results for the EC50 at HDAC3, on HDAC1 (intact cells) and at HDAC2 (intact cells) were 32000 ± 16000 nM, 2600 ± 1100 nM and 1600 ± 700 nM, respectively. The “inhibition of histone H3 K9/K14 deacetylation (Western blot)” value (“inhibition” for short) in test [1] is “significantly more potent than CI-944”. In addition, the “DSF ΔTm BRD4 BD2” value at BRD4 BD2 (10 μM compound, 2 μM protein) came out at 4.5 ± 0.1 K. For the same compound, the ΔTm at 10 µM at BRD4 BD2 (read-out: DSF ΔTm BRD4 BD2, 10 μM compound, 2 μM protein) fell in the range of 4 to 5 °C; at BRD4 BD1 (read-out: DSF ΔTm BRD4 BD1, 10 μM compound, 2 μM protein), 4 to 5 °C. The “Mean Tm BRD4 (2), bromodomain panel” value at BRD4 BD2 (10 μM compound) was determined as 4.6 ± 0.1 K. On BRD4 BD1 (10 μM compound, 2 μM protein), the “DSF ΔTm BRD4 BD1” value was 3.9 ± 0.4 K. Moreover, the “Mean Tm BRD4 (1), bromodomain panel” value at BRD4 BD1 (10 μM compound) is listed as 3.6 ± 0.1 K. Further, the IC50 is 400 ± 30 nM with HCC2429 cells and 2700 ± 300 nM with PaTu8988T cells.

Regarding `Cn1cc(-c2ccc(C(=O)Nc3ccccc3N)nc2)c2cc[nH]c2c1=O` [NB500], the EC50 at HDAC3 is > 50000 nM; on HDAC1 (intact cells), 4800 ± 2300 nM; at HDAC2 (intact cells) it was 2500 ± 700 nM. Further, in test [1], the “inhibition” value is given as “much less potent”. Further, the ΔTm at 10 µM on BRD4 BD2 (10 μM compound, 2 μM protein, read-out: DSF ΔTm BRD4 BD2) is 4.7 ± 0.4 °C; on BRD4 BD1 (10 μM compound, 2 μM protein, read-out: DSF ΔTm BRD4 BD1), 4.2 ± 0.4 °C. Also, the values for the IC50 in the test on HCC2429 cells and in the test on PaTu8988T cells were 220 ± 20 nM and 3200 ± 400 nM, respectively.

For the compound `Cn1cc(-c2ccc(C(=O)Nc3cc(-c4ccccc4)ccc3N)cc2)c2cc[nH]c2c1=O` [NB503], the EC50 on HDAC3 stood at 6500 ± 2800 nM; on HDAC1 (intact cells) it was 190 ± 30 nM; at HDAC2 (intact cells), 360 ± 120 nM. Besides, the “inhibition” value in test [1] is recorded as “concentration-dependent”. Further, the “Mean Tm BRD4 (2), bromodomain panel” value on BRD4 BD2 (10 μM compound) amounted to 5.3 ± 0.2 K. Moreover, on BRD4 BD1 (10 μM compound), the “Mean Tm BRD4 (1), bromodomain panel” value is listed as 5.5 ± 0.1 K. Moreover, the IC50 is 630 ± 80 nM with HCC2429 cells and 2800 ± 200 nM in the test with PaTu8988T cells.

As to `Cn1cc(-c2ccc(C(=O)Nc3cc(-c4ccccc4)ccc3N)nc2)c2cc[nH]c2c1=O` [NB512], the EC50 was 13600 ± 4800 nM at HDAC3; 110 ± 30 nM on HDAC1 (intact cells); 27 nM on HDAC1 (lysed-mode); 98 nM and 100 nM on HDAC2 (intact cells); 37 nM at HDAC2 (lysed-mode). In test [1], the “inhibition” value is given as “more potent inhibitor overall”. The IC50 in the test with HCC2429 cells worked out at 420 ± 50 nM; in the test on PaTu8988T cells, 3600 ± 400 nM.
